Test results as given in ChEMBL document CHEMBL4422625, “Structure Elucidation, Conformation, and Configuration of Cytotoxic 6-Heptyl-5,6-dihydro-2 H-pyran-2-ones from Hyptis Species and Their Molecular Docking to α-Tubulin” (J Nat Prod, 2019).
pIC50: −log10 of the molar value.

Experiments:
Type in all cases: functional, cell-based
[1] = system: MCF7; test: Cytotoxicity against human MCF7 cells after 48 hrs by sulforhodamine B assay; conditions: MCF7, 48 h
[2] = system: HeLa; test: Cytotoxicity against human HeLa cells after 48 hrs by sulforhodamine B assay
[3] = system: HCT-15; test: Cytotoxicity against human HCT15 cells after 48 hrs by sulforhodamine B assay; conditions: HCT-15, 48 h

SMILES	pIC50 [1]	pIC50 [2]	pIC50 [3]
CCCC[C@@H](/C=C\[C@@H]1OC(=O)C[C@@H](OC)[C@@H]1OC(C)=O)OC(C)=O	< 5.00	< 5.00	< 5.00
CCCC[C@H](/C=C\[C@@H]1OC(=O)C=C[C@@H]1O)OC(C)=O	5.89	5.85	5.02
CCCC[C@H](O)/C=C\[C@@H]1OC(=O)C=C[C@@H]1O	5.23	5.21	5.13
CCCC[C@H](O)/C=C\[C@@H]1OC(=O)C[C@@H](OC)[C@@H]1O	< 5.00	< 5.00	< 5.00
CCCC[C@H](/C=C\[C@@H]1OC(=O)C=C[C@@H]1OC(C)=O)OC(C)=O	6.30	6.15	6.10
CCCC[C@H](OC(C)=O)[C@@H](O)[C@H](O)[C@@H]1OC(=O)C=C[C@@H]1OC(C)=O	5.01	5.16	5.00
CCCC[C@H](OC(C)=O)[C@@H](OC(C)=O)[C@H](OC(C)=O)[C@@H]1OC(=O)C=C[C@@H]1OC(C)=O	5.11	5.57	< 5.00
CCCC[C@@H](/C=C\[C@@H]1OC(=O)C=C[C@@H]1OC(C)=O)OC(C)=O [PECTINOLIDE A]	5.49	5.49	5.24
CCCC[C@H](O)/C=C\[C@@H]1OC(=O)C=C[C@@H]1OC(C)=O [PECTINOLIDE B]	5.03	5.39	5.28
CCCC[C@@H](/C=C\[C@@H]1OC(=O)C=C[C@@H]1O)OC(C)=O [PECTINOLIDE C]	6.00	6.52	5.64
C/C=C/C[C@H](C)[C@@H](OC)[C@@H](C)[C@H](O)C[C@H]1OC(=O)C=C[C@H]1CC [PIRONETIN]	7.82	7.04	> 7.82
CC[C@]1(O)C[C@@H]2CN(CCc3c([nH]c4ccccc34)[C@@](C(=O)OC)(c3cc4c(cc3OC)N(C)[C@H]3[C@@](O)(C(=O)OC)[C@H](OC(C)=O)[C@]5(CC)C=CCN6CC[C@]43[C@@H]65)C2)C1 [VINBLASTINE]	7.92	7.96	7.96
